The values that follow come from paper PMC10492212 (Journal of Ayurveda and Integrative Medicine, 2023).

The IC50 is the concentration needed to halve the response being measured. Lower therefore signals greater potency.

The assay addresses intestinal α-glucosidase. As to the kind of experiment: sucrose hydrolysis, glucose oxidase-peroxidase, absorbance […] nm. The class given is biochemical. The conditions noted are these: phosphate buffer pH 7.5, 20 min pre-incubation at 37 °C.

≈ marks a conversion by molar mass, not a printed value.

`C[C@H]1O[C@H](O[C@H]2[C@H](O)[C@@H](O)[C@@H](O[C@H]3[C@H](O)[C@@H](O)C(O)O[C@@H]3CO)O[C@@H]2CO)[C@H](O)[C@@H](O)[C@@H]1N[C@H]1C=C(CO)[C@@H](O)[C@H](O)[C@H]1O` (stereo partly shown) [acarbose] showed an IC50 of 52.5 ± 2.67 µg/mL (≈ 81.3 µM).
